Values quoted from earlier work, collected in patent US20250064843A1, “METHOD AND MEDICAMENT FOR TREATING AMYOTROPHIC LATERAL SCLEROSIS” (4B TECHNOLOGIES (BEIJING) CO., LIMITED, priority 2021, published 2025).
pIC50: −log10 of the molar value. Values after ≈ are worked out from the molar mass of the structure shown.

Legend:
IGF1R = IGF1R (Homo sapiens, UniProt P08069); details: for IGF1R
proliferation = details: for proliferation
mouse leukemia cells = details: on mouse leukemia cells
ALS-mimic mouse model = details: NR3C1 antagonist
KCNC1 = molecular target: T1, KCNC1 (Homo sapiens, UniProt P48547); details: for KCNC1
T1 sequence (P48547 1-511): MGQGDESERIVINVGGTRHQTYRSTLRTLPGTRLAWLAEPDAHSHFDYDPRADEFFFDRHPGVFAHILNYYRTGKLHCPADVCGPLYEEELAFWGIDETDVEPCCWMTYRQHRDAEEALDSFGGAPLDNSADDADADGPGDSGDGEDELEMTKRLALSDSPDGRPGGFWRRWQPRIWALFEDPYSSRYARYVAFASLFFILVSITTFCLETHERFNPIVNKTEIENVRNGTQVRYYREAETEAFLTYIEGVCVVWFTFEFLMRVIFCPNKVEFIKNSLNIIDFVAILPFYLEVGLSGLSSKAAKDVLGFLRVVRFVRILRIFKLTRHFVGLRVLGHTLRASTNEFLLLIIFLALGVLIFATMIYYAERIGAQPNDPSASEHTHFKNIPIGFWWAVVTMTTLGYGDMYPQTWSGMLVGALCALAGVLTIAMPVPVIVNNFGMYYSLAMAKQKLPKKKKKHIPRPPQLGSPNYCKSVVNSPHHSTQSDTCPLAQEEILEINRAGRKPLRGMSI

leukemia cells = details: on leukemia cells at 24 h
human neutrophils = details: in human neutrophils
NR3C1 = molecular target: T2, NR3C1 (Homo sapiens, UniProt P04150); details: for NR3C1; retrieved from Selleckchem.com
T2 sequence (P04150 1-777): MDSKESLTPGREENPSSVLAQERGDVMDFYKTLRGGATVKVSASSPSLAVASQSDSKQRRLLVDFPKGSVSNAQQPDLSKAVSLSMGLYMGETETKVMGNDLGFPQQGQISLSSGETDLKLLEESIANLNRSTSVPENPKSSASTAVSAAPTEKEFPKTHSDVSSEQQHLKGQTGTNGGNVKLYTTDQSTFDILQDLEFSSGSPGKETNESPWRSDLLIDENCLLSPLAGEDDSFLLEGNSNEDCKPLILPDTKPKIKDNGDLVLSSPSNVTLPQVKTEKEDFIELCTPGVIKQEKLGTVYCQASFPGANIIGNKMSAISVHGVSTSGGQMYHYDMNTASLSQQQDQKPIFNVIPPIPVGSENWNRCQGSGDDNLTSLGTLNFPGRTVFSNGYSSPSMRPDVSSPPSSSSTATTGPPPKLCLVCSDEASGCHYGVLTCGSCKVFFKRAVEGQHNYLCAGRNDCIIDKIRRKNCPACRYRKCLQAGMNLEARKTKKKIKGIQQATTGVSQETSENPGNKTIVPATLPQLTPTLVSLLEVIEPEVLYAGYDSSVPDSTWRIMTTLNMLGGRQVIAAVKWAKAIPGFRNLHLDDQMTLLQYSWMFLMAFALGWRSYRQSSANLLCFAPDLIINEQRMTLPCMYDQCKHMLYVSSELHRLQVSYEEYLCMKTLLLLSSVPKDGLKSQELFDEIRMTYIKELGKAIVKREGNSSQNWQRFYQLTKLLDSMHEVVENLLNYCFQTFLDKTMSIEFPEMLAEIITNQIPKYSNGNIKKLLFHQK

ALS patients = details: NR3C1 agonists

Sequence of IGF1R (P08069 31-1367): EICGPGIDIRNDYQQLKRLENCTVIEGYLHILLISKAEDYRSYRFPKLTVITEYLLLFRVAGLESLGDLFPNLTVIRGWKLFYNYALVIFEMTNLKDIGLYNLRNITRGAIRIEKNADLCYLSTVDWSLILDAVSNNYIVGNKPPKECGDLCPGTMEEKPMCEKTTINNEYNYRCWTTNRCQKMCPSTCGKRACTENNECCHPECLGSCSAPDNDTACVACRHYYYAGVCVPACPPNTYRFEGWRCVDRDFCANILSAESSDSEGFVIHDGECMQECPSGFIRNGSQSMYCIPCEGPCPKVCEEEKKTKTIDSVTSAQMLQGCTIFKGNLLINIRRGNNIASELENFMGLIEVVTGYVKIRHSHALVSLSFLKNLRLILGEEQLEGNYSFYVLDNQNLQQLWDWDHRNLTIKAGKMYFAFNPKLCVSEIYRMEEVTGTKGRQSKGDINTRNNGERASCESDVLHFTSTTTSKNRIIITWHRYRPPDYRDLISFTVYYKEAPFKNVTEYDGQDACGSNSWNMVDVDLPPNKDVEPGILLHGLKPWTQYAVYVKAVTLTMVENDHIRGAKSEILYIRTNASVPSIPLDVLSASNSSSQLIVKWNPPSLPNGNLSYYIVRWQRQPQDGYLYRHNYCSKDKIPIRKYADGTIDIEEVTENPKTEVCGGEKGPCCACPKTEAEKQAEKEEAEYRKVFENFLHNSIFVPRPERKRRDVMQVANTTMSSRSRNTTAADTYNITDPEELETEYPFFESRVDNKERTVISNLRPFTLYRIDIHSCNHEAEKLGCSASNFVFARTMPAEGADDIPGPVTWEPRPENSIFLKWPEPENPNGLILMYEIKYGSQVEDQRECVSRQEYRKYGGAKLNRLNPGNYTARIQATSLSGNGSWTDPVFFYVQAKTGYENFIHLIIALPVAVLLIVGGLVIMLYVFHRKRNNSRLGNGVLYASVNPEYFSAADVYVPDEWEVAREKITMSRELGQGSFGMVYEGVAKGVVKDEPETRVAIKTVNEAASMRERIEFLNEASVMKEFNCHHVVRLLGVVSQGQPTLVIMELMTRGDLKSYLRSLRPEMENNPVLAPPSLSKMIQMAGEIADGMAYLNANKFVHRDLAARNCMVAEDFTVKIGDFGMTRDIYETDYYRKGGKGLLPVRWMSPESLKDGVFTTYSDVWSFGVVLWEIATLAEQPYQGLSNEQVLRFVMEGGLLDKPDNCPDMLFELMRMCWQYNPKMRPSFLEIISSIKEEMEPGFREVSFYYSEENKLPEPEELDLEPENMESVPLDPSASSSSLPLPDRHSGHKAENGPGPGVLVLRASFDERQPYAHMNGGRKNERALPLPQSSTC

COc1cc([C@@H]2c3cc4c(cc3[C@H](O)[C@H]3COC(=O)[C@@H]23)OCO4)cc(OC)c1OC [AXL-1717, picropodophyllin]
pIC50 (IGF1R): 9.00

COc1cc(C)c(/C=C/C(C)=C/C=C/C(C)=C/C(=O)O)c(C)c1C [Acitretin, (2E,4E,6E,8E)-9-(4-methoxy-2,3,6-trimethylphenyl)-3,7-dimethylnona-2,4,6,8-tetraenoic acid]
pIC50 (proliferation): 5.18

Nc1ncn([C@@H]2O[C@H](CO)[C@@H](O)[C@H]2O)c(=O)n1 [Azacitidine, 5-azacytidine]
IC50 (mouse leukemia cells): 0.019 µg/mL (≈ 0.0778 µM)

O=C(c1ccccn1)[C@]12Cc3cnn(-c4ccc(F)cc4)c3C=C1CCN(S(=O)(=O)c1ccc(C(F)(F)F)cc1)C2 [CORT113176]
effect on pro-inflammatory factors (ALS-mimic mouse model): reducing the expression and origin of pro-inflammatory factors

Nc1ccncc1 [Dalfampridine, 4-aminopyridine]
pIC50 (KCNC1): 4.54

Nc1ncn([C@H]2C[C@H](O)[C@@H](CO)O2)c(=O)n1 [Decitabine, 5-aza-2′-deoxycytidine]
pIC50 (leukemia cells): 7.00

CC(CCc1ccccc1)NCC(O)c1ccc(O)c(C(N)=O)c1 (stereo not drawn) [Labetalol]
IC50 (human neutrophils): 13.2 mg/L in

CC#C[C@]1(O)CCC2C3CCC4=CC(=O)CCC4=C3[C@@H](c3ccc4c(c3)OCO4)C[C@@]21C (stereo partly drawn) [ORG-34517]
pIC50 (NR3C1): 7.75

C[C@]12C=CC(=O)C=C1CC[C@@H]1[C@@H]2C(=O)C[C@@]2(C)[C@H]1CC[C@]2(O)C(=O)CO [prednisone]
response to immunosuppression therapy (ALS patients): none of the patients reached the pre-defined responder criteria
